Entries after “also recorded” stand apart in the source; their conditions may differ. Where a SMILES comes first, the peptide text is derived from it. Bridges are numbered along the chain shown (N, C = ends).
What was measured:
[1] = system: mouse inferior colliculus (auditory midbrain); assay: Sound evoked activity within excitatory receptive field (eRF), systemic administration; settings: for spikes within the eRF, representative eRF: baseline 522 spikes, BF 19.5 kHz
mAcetylcholine M4 = assay: Competition radioligand binding (NIMH PDSP); settings: radioligand QNB, measured 4 times
[2] = system: slo-1(+) worm BK channel gene expressed in slo-1(null) worms; assay: C. elegans crawl speed, slo-1(+) rescue on slo-1 null background; assay type: in vivo, Caenorhabditis elegans; settings: 750 μM LS3, 30 min; transgenic slo-1(+) on slo-1(null) background; vs. slo-1(null): p < 0.001, N = 78–162
Experimental: (§1) Worms were cultivated at 20 °C as described with OP50 bacteria. Worms cultured on plates contaminated with fungi or other bacteria were excluded from this study. The reference wild-type strain was N2 Bristol. The reference slo-1(null) strain and background for transgenic strains was NM1968, harboring the previously characterized null allele, js379[29]. Multi-site gateway technology (Invitrogen) was used to construct plasmids. […] of the native slo-1 promoter (Pslo-1) and the traditional unc-54 UTR were used in combination with slo-1a(cDNA)::mCherry for a rescue construct. To test rescue with the human BK channel, an hslo(ZERO isoform, cDNA)::mCherry version was constructed. The slo-1(+) and hslo(+) plasmids were injected at a concentration of 20 and 10 ng/μl, respectively. The co-injection reporter PCFJ90 (1.25 ng/μl) was used to ensure proper transformation of the arrays. As such, JPS345 carried vxEx345, an extrachromosomal array containing [Pslo-1::slo-1::mCherry::unc-54UTR,Pmyo-2::mCherry::unc-54UTR]. JPS340 carried […], an extrachromosomal array containing [Pslo-1::hslo::mCherry::unc-54UTR,Pmyo-2::mCherry::unc-54UTR].
Age-matched day one adults were cleaned of bacteria by letting them crawl around on an unseeded plate and then moved into a puddle of NGM or peptide dissolved in NGM on another unseeded plate. […]

[3] = biological target: T1, human BKα channel (ZERO isoform) expressed in HEK293 cells (Homo sapiens, UniProt Q12791); assay: Patch-clamp recording, inside-out patches, extracellular application; assay type: cell-based
T1 construct: expressed in transfected cells; host or cells: HEK293 (ATCC), transient transfection with Lipofectamine 2000; EGFP cotransfected as a separate marker
Experimental: HEK293 cells (ATCC, Manassas, VA) were grown according to standard procedures. Cells were cultured at 37 °C in a 5% CO2 atmosphere in Dulbecco’s modified Eagle’s medium with L-glutamine, sodium pyruvate and 10% fetal bovine serum (Invitrogen). Cell lines were split with trypsin/EDTA in Hanks’ balanced salt solution (Invitrogen) up to 25–30 cycles. For phage display, stable lines stably expressed rSK2 or hBKα ZERO isoform. Cells were transfected (Lipofectamine 2000, Invitrogen) with hGlyRα1 and used 48 hours later. For electrophysiological recordings, cells were transfected with hBKα ZERO isoform. Enhanced green fluorescent protein (EGFP) was cotransfected as a marker. Electrophysiological recordings were made 16–72 h after transfection. Although the profile of BK channel composition varies from tissue to tissue, the ZERO BK channel splice variant is widely expressed, particularly in the nervous system, serving as a representative form for studying the modulation of BK channel gating.
Voltage-clamp recordings were performed at room temperature (22–24 °C) using an inside-out configuration on patches pulled from HEK293 cells. The extracellular solution contained the following (in mM): 2 KCl, 136 KOH, 20 HEPES, 2 MgCl2, adjusted to pH 7.2 with MeSO3H. In order to apply peptide to the extracellular surface, patch electrodes (7–20 MΩ in resistance) were tip-filled with normal extracellular solution and backfilled with extracellular solution containing LS3. Enough normal extracellular solution was included to provide at least five minutes of peptide-free recording (determined by plotting Po vs. time). The intracellular solution (in the bath) contained the following (in mM): 6 KCl, 132 KOH, 20 HEPES, adjusted to pH 7.2 with MeSO3H. To achieve 750 nM free Ca^2+, […] and 5 mM EGTA were included, a ratio verified by measurement with a Ca^2+-sensitive electrode. Voltage-clamp recordings made with an Axopatch 200 A amplifier and custom macros in IgorPro. Analysis was performed with QUB (http://www.qub.buffalo.edu), including Po, mean open time and three component exponential fits to closed dwell times. Group means±SEM for post-peptide measures were plotted relative to pre-peptide values and compared with pre values via planned paired t-tests.

[4] = system: slo-1 null worms (NM1968, js379); assay: C. elegans crawl speed, slo-1 null; assay type: in vivo, Caenorhabditis elegans; settings: for effect on crawl speed (LS3 reduced crawl speed for wild type but not slo-1(null)): 30 min
Experimental: as §1
Age-matched day one adults were cleaned of bacteria by letting them crawl around on an unseeded plate and then moved into a puddle of NGM or peptide dissolved in NGM on another unseeded plate. NGM and peptide treatment groups were always run in tandem to control for behavioral variance. While much shorter than typical drug applications in C. elegans, brief application in liquid was chosen to avoid potential catabolic by-products of incubation on metabolically active E. coli. Higher LS3 concentrations were used to compensate. The puddle was refreshed 1–2 times as needed, but let to fully absorb into the agar by 30 minutes. After 30 minutes, crawl behavior was videoed (Flea2 camera, Point Grey Research, Canada; StreamPix 3, NorPix, Canada). Copper rings restricted movement to a proscribed area. The worms were tracked offline using custom macros (Image-Pro, MediaCybernetics, Rockville, MD) for 1 minute to obtain crawl speed (cm/min). Group means ± SEM for peptide-treated vs. vehicle-treated controls were compared at each concentration with Student’s t-tests. Rescue analysis was completed with two-way ANOVA (SigmaPlot, San Jose, CA). Crawl speeds for the peptide treated groups were also normalized to the performance of yoked controls. Normalized group means±SEM were compared vs. slo-1 null performance by two-way ANOVA.

mAcetylcholine M3 = assay: Competition radioligand binding (NIMH PDSP); settings: radioligand QNB, measured 4 times
[5] = system: mouse inferior colliculus (auditory midbrain); assay: Sound evoked activity within excitatory receptive field (eRF), topical application on dura

T1 sequence (Q12791 1-1178 isoform Q12791-5): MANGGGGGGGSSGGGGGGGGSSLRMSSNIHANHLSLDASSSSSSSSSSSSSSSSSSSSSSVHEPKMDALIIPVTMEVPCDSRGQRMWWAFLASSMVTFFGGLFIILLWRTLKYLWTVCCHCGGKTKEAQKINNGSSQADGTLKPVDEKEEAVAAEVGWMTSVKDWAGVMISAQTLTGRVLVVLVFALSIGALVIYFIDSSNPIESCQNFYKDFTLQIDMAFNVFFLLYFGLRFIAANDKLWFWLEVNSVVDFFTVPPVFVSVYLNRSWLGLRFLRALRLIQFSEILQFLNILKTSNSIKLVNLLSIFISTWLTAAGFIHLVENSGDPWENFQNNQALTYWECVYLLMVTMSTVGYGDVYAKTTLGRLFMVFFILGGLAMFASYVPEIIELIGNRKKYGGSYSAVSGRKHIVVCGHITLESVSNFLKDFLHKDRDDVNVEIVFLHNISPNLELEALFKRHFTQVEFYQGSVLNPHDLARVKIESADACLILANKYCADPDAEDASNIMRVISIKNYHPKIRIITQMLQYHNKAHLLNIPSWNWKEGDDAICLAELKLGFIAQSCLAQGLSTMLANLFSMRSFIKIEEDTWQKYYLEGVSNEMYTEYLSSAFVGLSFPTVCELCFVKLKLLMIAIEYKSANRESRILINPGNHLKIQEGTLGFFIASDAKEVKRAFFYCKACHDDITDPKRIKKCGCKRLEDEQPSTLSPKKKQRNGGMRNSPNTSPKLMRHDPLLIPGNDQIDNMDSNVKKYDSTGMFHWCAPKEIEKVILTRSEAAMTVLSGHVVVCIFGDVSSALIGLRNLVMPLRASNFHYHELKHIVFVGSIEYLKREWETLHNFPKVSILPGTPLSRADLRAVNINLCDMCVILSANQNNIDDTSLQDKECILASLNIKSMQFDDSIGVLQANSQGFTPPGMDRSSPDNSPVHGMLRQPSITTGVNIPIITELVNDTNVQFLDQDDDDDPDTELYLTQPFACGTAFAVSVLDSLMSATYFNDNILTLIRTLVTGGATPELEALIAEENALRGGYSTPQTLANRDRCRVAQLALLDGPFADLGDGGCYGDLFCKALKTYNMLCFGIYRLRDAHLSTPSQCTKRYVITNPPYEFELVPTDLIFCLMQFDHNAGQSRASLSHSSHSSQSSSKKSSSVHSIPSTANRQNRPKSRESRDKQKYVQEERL

## CC(C)C[C@@H]1NC(=O)CNC(=O)[C@H](CCCNC(=N)N)NC(=O)[C@H](CCCNC(=N)N)NC(=O)[C@@H](N)CSSC[C@@H](C(=O)O)NC(=O)[C@H](C(C)C)NC(=O)[C@H](CCC(N)=O)NC(=O)[C@H](C(C)C)NC1=O [LS3] (H-CRRGLVQVC-OH; disulfide 1-9; N-terminus and C-terminus assumed)
[1]; 0.3 mg/kg I.P. LS3
  effect on sound evoked activity in the inferior colliculus: suppressed sound evoked activity in the inferior colliculus; also recorded: suppresses sound evoked activity in the IC when administered systemically
[1]; systemic (0.3 mg/kg I.P.) LS3, 2 hrs
  spikes within the eRF, representative eRF: 41 spikes
[1]; systemic (0.3 mg/kg I.P.) LS3, 5 hours
  spikes within the eRF, representative eRF: 37 spikes
[1]; systemic (0.3 mg/kg I.P.) LS3, over 2 hours, mean, 47 units from 5 CBA mice
  reduction in spikes within the eRF: 85%
[1]; systemic (0.3 mg/kg I.P.) LS3, over 5 hours
  decrease in sound evoked activity within the receptive field, representative eRF: 93%
[1]; systemic LS3, mean of 49 units, F(32,936) = 7.724 P < 0.0001
  time course of driven activity: continued to decline out to 7 hours
mAcetylcholine M4
  % inhibition by 10 µM LS3: 6.8%
[2]
  LS3-induced slowing response (reduction in crawl speed): rescued
[3]; 50 pM LS3, extracellular, any voltage (60–100 mV), 750 nM Ca
  effect on Po (post vs. pre peptide): did not significantly alter the Po
[3]; 500 pM to 500 nM LS3, extracellular, each holding potential 60–100 mV, 750 nM Ca, N = 6–12
  effect on Po (post vs. pre peptide): reduced the Po at each holding potential
[3]; 50 nM LS3 applied to extracellular (external) side, each voltage, p < 0.05, N = 6
  effect on Po (post vs. pre peptide): reduction in Po at each voltage; also recorded: significantly reduce Po at all voltages
[3]; 500 nM LS3, 750 nM Ca, three-component exponential fits, component 0, N = 8
  short closed dwell times: remained unchanged; also recorded: did not change significantly
[3]; 500 nM LS3, 750 nM Ca, three-component exponential fits, component 2, p < 0.05, N = 8
  long closed dwell times: increased; also recorded: lengthened
[3]; 500 nM LS3, 40 mV, p < 0.05
  post Po relative to pre: 0.54 ± 0.17
[3]; 500 nM LS3, 60 mV, pre peptide 282 ± 4.62 pS (remained stable)
  single channel conductance post LS3: 287 ± 5.12 pS
[3]; 500 nM LS3, all holding potentials 60–100 mV, 750 nM Ca, p < 0.05, N = 8
  mean open times: decreasing mean open times at all holding potentials; also recorded: shortened openings
[3]; 60 mV, high picomolar to nanomolar LS3, extracellular, intracellular calcium 750 nM
  reduction of probability of channel opening (Po): ~ 60%
[3]; LS3 vs. known high affinity BK channel toxins / Kv peptide toxins or paxilline
  apparent affinity compared with known blockers: higher than known high affinity BK channel toxins; also recorded: higher apparent affinity than Kv peptide toxins or paxilline
[3]; from change in mean open and closed times, rather than blocking the pore
  mode of action on channel: modulates channel gating
[3]; inside-out patches, peptide applied to extracellular side, intracellular calcium 750 nM, 22–24 °C, approximate, in words
  IC50 for reduction of BK channel open probability (Po): mid-picomolar range
[4]; 75 µM LS3 vs. vehicle
  effect on crawl speed (LS3 reduced crawl speed for wild type but not slo-1(null)): not
[4]; 250 µM LS3 vs. vehicle
  effect on crawl speed (LS3 reduced crawl speed for wild type but not slo-1(null)): not
[4]; 750 µM LS3 vs. vehicle
  effect on crawl speed (LS3 reduced crawl speed for wild type but not slo-1(null)): not
[4]; slo-1 null, LS3 in NGM, 30 min bath, normalized to vehicle-treated controls
  effect on crawl speed: did not significantly slow
mAcetylcholine M3
  % inhibition by 10 µM LS3: 11.5%
[5]; 1 μL of 10 μM LS3, 120 minutes post application, baseline 450 spikes, mean, 49 units
  mean driven activity within receptive field: ~ 225 spikes
[5]; 1 μL of 10 μM LS3, after 3 hours, 47 recording sites, N = 5 mice
  reduction of mean sound evoked activity: ~ 70%
[5]; 1 μL of 10 μM LS3, after 3 hours, baseline 430, 47 recording sites, N = 5 mice
  mean sound evoked activity: 130 spikes
[5]; 1 μL of 10 μM LS3, mean of 49 units, F(5,206) = 5.085 P = 0.0002
  time course of driven activity: continued to decline out to 4 hours
[5]; 1 μL of 10 μM stock, from baseline pre-peptide, Fig. 5A,B representative eRFs
  reduction of sound evoked driven activity within the RF: approximately 50%
